Measured values published in patent US4309559A, “Sulphonamides useful as pesticides” (FBC Limited, priority 1977, dated 1982).

Legend:
Type in all cases: in vivo
[1] = test system: Maize (Zea mays); assay: Soil incorporation (attaclay/sand dust), growth regulatory or herbicidal effects, maize; conditions: 504 h, soil incorporation 26 ppm, 21 days, 0=no effect, 100=complete kill, read-out: growth regulatory or herbicidal effect score
In short: (§1)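 Dust-formulated compound incorporated in potting compost, 26 or 130 ppm w/v; seeds sown, watered, 21 d at 22° C, 65-85% RH, 14 h/day 13,000 lux. Visual growth-regulatory/herbicidal score 0 (no effect) to 100 (complete kill) vs untreated.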

[2] = test system: Wheat (Triticum aestivum); assay: Pre-emergence soil surface spray, wheat; conditions: soil surface spray 2.8 kg/ha, 21 days, 0=no effect, 100=complete kill
In short: (§2)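 Compounds are applied to the compost surface right after sowing, at 2.8 kg active ingredient per hectare. After 21 days in a controlled environment room at 22° C., any difference from untreated plants is rated visually from 0 (no effect) to 100 (complete kill).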

[3] = test system: Mustard (Sinapis alba); assay: Post-emergence foliar spray, herbicidal/growth regulant response, mustard; conditions: 168 h, foliar spray 11.2 kg/ha, 7 days, 0=no effect, 100=complete kill, read-out: herbicidal or growth regulant response index
In short: (§3)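 Test compound, dissolved in 1:1 by volume aqueous acetone, is applied as a foliar spray equivalent to 11.2 kg/ha in 450 L/ha to seedlings two weeks after sowing. Responses are rated visually after one week on a 0–100 kill scale.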

[4] = test system: Wild Oat (Avena fatua); assay: Pre-emergence soil surface spray, wild oat; conditions: soil surface spray 2.8 kg/ha, 21 days, 0=no effect, 100=complete kill
In short: as §2

[5] = test system: Linseed (Linum usitatissimum); assay: Soil incorporation (attaclay/sand dust), growth regulatory or herbicidal effects, linseed; conditions: 504 h, soil incorporation 26 ppm, 21 days, 0=no effect, 100=complete kill, read-out: growth regulatory or herbicidal effect score
In short: as §1

[6] = test system: French beans (Phaseolus vulgaris); assay: Post-emergence foliar spray, herbicidal/growth regulant response, French beans; conditions: foliar spray 11.2 kg/ha, 7 days, 0=no effect, 100=complete kill
In short: as §3

[7] = test system: Oat (Avena sativa); assay: Post-emergence foliar spray, herbicidal/growth regulant response, oat; conditions: 168 h, foliar spray 11.2 kg/ha, 7 days, 0=no effect, 100=complete kill, read-out: herbicidal or growth regulant response index
In short: as §3

[8] = test system: Ryegrass (Lolium perenne); assay: Soil incorporation (attaclay/sand dust), growth regulatory or herbicidal effects, ryegrass; conditions: 504 h, soil incorporation 26 ppm, 21 days, 0=no effect, 100=complete kill, read-out: growth regulatory or herbicidal effect score
In short: as §1

[9] = test system: Peas (Pisum sativum); assay: Soil incorporation (attaclay/sand dust), growth regulatory or herbicidal effects, peas; conditions: Lathyrus oleraceus, 504 h, soil incorporation 26 ppm, 21 days, 0=no effect, 100=complete kill, read-out: growth regulatory or herbicidal effect score
In short: as §1

[10] = test system: Oats (Avena sativa); assay: Soil incorporation (attaclay/sand dust), growth regulatory or herbicidal effects, oats; conditions: 504 h, soil incorporation 26 ppm, 21 days, 0=no effect, 100=complete kill, read-out: growth regulatory or herbicidal effect score
In short: as §1

[11] = test system: Crabgrass (Digitaria sanguinalis); assay: Pre-emergence soil surface spray, crabgrass; conditions: soil surface spray 2.8 kg/ha, 21 days, 0=no effect, 100=complete kill
In short: as §2

[12] = test system: Barnyardgrass (Echinochloa crus-galli); assay: Pre-emergence soil surface spray, barnyardgrass; conditions: soil surface spray 2.8 kg/ha, 21 days, 0=no effect, 100=complete kill
In short: as §2

[13] = test system: Linseed (Linum usitatissimum); assay: Post-emergence foliar spray, herbicidal/growth regulant response, linseed; conditions: 168 h, foliar spray 11.2 kg/ha, 7 days, 0=no effect, 100=complete kill, read-out: herbicidal or growth regulant response index
In short: as §3

SMILES: CCCS(=O)(=O)N(c1c(C)cccc1C)C(C)C(=O)OCC (stereo not shown) [Example 24, N-(1-[ethoxycarbonyl]ethyl)-2',6'-dimethyl-1-propanesulphonanilide]
- plant injury at 26 µg/mL [1]: 60%
- growth regulatory or herbicidal effect score [2]: 10
- pest or weed control at 11200 g/ha [3]: 100%
- growth regulatory or herbicidal effect score [4]: 100
- pest or weed control at 26 µg/mL [5]: 100%
- herbicidal or growth regulant response index [6]: 100
- plant injury at 11200 g/ha [7]: 30%
- pest or weed control at 26 µg/mL [8]: 100%
- pest or weed control at 26 µg/mL [9]: 0%
- plant injury at 26 µg/mL [10]: 60%
- growth regulatory or herbicidal effect score [11]: 100
- growth regulatory or herbicidal effect score [12]: 80
- pest or weed control at 11200 g/ha [13]: 90%
